This note sets out measurements from patent US12077503B2, “Substituted cyclic amides and their use as herbicides” (FMC CORPORATION, priority 2015, dated 2024).

Holding throughout (type): in vivo
Experiment [1] concerns barnyardgrass (Echinochloa crus-galli). Briefly: Test A postemergence. Conditions: Echinochloa crus-galli, post-emergence, 240 h, 125 g ai/ha, postemergence. In outline:
(§1)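 Greenhouse, ~10 d after spray; visual injury vs untreated controls, 0 = no effect, 100 = complete control. Preemergence: directed soil spray over planted seeds. Postemergence: plants 2–10 cm, 1–2 leaf stage. Loam/sand blend. Compound in non-phytotoxic solvent with surfactant.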

Experiment [2] concerns corn (Zea mays). Briefly: Test A postemergence. The conditions noted are these: Zea mays, post-emergence, 240 h, 125 g ai/ha, postemergence. In outline:
as §1

Experiment [3] deals with Kochia (Kochia scoparia). Briefly: Test A postemergence. Conditions: Bassia scoparia, post-emergence, 240 h, 125 g ai/ha, postemergence. The method, boiled down:
as §1

Experiment [4] has as its system ryegrass, Italian (Italian ryegrass, Lolium multiflorum). The experiment in a line: Test A postemergence. Conditions: Lolium multiflorum, post-emergence, 240 h, 125 g ai/ha, postemergence. The method, boiled down:
as §1

In experiment [5] the test system is wheat (Triticum aestivum). Briefly: Test A postemergence. The conditions noted are these: Triticum aestivum, post-emergence, 240 h, 125 g ai/ha, postemergence. The method, boiled down: as §1
Experiment [6] deals with Galium (catchweed bedstraw, Galium aparine). Briefly: Test A postemergence. The conditions noted are these: Galium, post-emergence, 240 h, 125 g ai/ha, postemergence. The method, boiled down:
as §1

In experiment [7] the test system is pigweed (Amaranthus retroflexus). The experiment in a line: Test A postemergence. The conditions noted are these: Amaranthus retroflexus, post-emergence, 240 h, 125 g ai/ha, postemergence. The method, boiled down: as §1
Experiment [8] deals with blackgrass (Alopecurus myosuroides). Briefly: Test A postemergence. Conditions: Alopecurus myosuroides, post-emergence, 240 h, 125 g ai/ha, postemergence. In outline: as §1
Experiment [9] has as its system ragweed (common ragweed, Ambrosia elatior). The experiment in a line: Test A postemergence. Conditions: Ambrosia artemisiifolia, post-emergence, 240 h, 125 g ai/ha, postemergence. The method, boiled down: as §1
Experiment [10] concerns giant foxtail (Setaria faberii). The experiment in a line: Test A postemergence. Conditions: Setaria faberi, post-emergence, 240 h, 125 g ai/ha, postemergence. The method, boiled down:
as §1

Experiment [11] concerns barnyardgrass (Echinochloa crus-galli). The experiment in a line: Test A preemergence. Conditions: Echinochloa crus-galli, pre-emergence, 240 h; for pest or weed control at 125 g/ha: 125 g ai/ha, 0 to 100 scale where 0 is no effect and 100 is complete control; for pest or weed control at 500 g/ha: 500 g ai/ha. In outline:
as §1

Experiment [12] deals with Kochia (Kochia scoparia). The experiment in a line: Test A preemergence. The conditions noted are these: Bassia scoparia, pre-emergence, 240 h; for pest or weed control at 500 g/ha: 500 g ai/ha. The method, boiled down: as §1
Experiment [13] concerns ryegrass, Italian (Italian ryegrass, Lolium multiflorum). Briefly: Test A preemergence. Conditions: Lolium multiflorum, pre-emergence, 240 h; for pest or weed control at 125 g/ha: 125 g ai/ha, 0 to 100 scale where 0 is no effect and 100 is complete control; for pest or weed control at 500 g/ha: 500 g ai/ha. The method, boiled down: as §1
Experiment [14] concerns pigweed (Amaranthus retroflexus). The experiment in a line: Test A preemergence. The conditions noted are these: Amaranthus retroflexus, pre-emergence, 240 h; for pest or weed control at 125 g/ha: 125 g ai/ha, 0 to 100 scale where 0 is no effect and 100 is complete control; for pest or weed control at 500 g/ha: 500 g ai/ha.
Experiment [15] has as its system ragweed (common ragweed, Ambrosia elatior). The experiment in a line: Test A preemergence. Conditions: Ambrosia artemisiifolia, pre-emergence, 240 h; for pest or weed control at 125 g/ha: 125 g ai/ha, 0 to 100 scale where 0 is no effect and 100 is complete control; for pest or weed control at 500 g/ha: 500 g ai/ha. The method, boiled down: as §1
For experiment [16], the system named is giant foxtail (Setaria faberii). The experiment in a line: Test A preemergence. The conditions noted are these: Setaria faberi, pre-emergence, 240 h; for pest or weed control at 125 g/ha: 125 g ai/ha, 0 to 100 scale where 0 is no effect and 100 is complete control; for pest or weed control at 500 g/ha: 500 g ai/ha. In outline: as §1

Read-outs that look alike come from different tables or passages of the source.

`CN1C[C@H](c2cc(F)cc(F)c2)[C@@H](C(=O)Nc2ccc(F)cc2C(F)(F)F)C1=O` [Compound 758]: the pest or weed control at 125 g/ha in experiment [1] (visual injury after approximately 10 d, 0 to 100 scale (0 no effect, 100 complete control), read-out: Plant response rating, Barnyardgrass) was 70%; in experiment [3] (visual injury after approximately 10 d, 0 to 100 scale (0 no effect, 100 complete control), read-out: Plant response rating, Kochia), 0%; in [4] (visual injury after approximately 10 d, 0 to 100 scale (0 no effect, 100 complete control), read-out: Plant response rating, Ryegrass, Italian) it was 0%; in experiment [6] (visual injury after approximately 10 d, 0 to 100 scale (0 no effect, 100 complete control), read-out: Plant response rating, Galium) it was 40%; in [7] (visual injury after approximately 10 d, 0 to 100 scale (0 no effect, 100 complete control), read-out: Plant response rating, Pigweed), 0%; in experiment [8] (visual injury after approximately 10 d, 0 to 100 scale (0 no effect, 100 complete control), read-out: Plant response rating, Blackgrass) it was 0%. Further, the pest or weed control at 125 g/ha in experiment [9] (visual injury after approximately 10 d, 0 to 100 scale (0 no effect, 100 complete control), read-out: Plant response rating, Ragweed) came out at 0%; in [10] (visual injury after approximately 10 d, 0 to 100 scale (0 no effect, 100 complete control), read-out: Plant response rating, Foxtail, Giant) it was 80%; in [11] (preemergence, visual rating after approx. 10 d, read-out: Plant response rating, Barnyardgrass), 100%; in experiment [12] (125 g ai/ha, preemergence, visual rating after approx. 10 d, 0 to 100 scale where 0 is no effect and 100 is complete control, read-out: Plant response rating, Kochia), 0%; in [13] (preemergence, visual rating after approx. 10 d, read-out: Plant response rating, Ryegrass, Italian), 30%; in experiment [14] (preemergence, visual rating after approx. 10 d, read-out: Plant response rating, Pigweed), 0%. Moreover, the pest or weed control at 125 g/ha worked out at 0% in experiment [15] (preemergence, visual rating after approx. 10 d, read-out: Plant response rating, Ragweed) and 100% in experiment [16] (preemergence, visual rating after approx. 10 d, read-out: Plant response rating, Foxtail, Giant). In experiment [2] (visual injury after approximately 10 d, 0 to 100 scale (0 no effect, 100 complete control)), this molecule gave a Corn plant response rating (crop injury, 0 = no effect, 100 = complete kill) at 125 g/ha of 20%. Moreover, in experiment [5] (visual injury after approximately 10 d, 0 to 100 scale (0 no effect, 100 complete control), read-out: Plant response rating, Wheat), the plant injury at 125 g/ha stood at 0%. For the same molecule, the pest or weed control at 500 g/ha in experiment [11] (preemergence, 0 to 100 scale, 0 = no effect, 100 = complete control, read-out: Plant response rating, Barnyardgrass) is 100%; in experiment [12] (preemergence, 0 to 100 scale, 0 = no effect, 100 = complete control, read-out: Plant response rating, Kochia), 60%; in experiment [13] (preemergence, 0 to 100 scale, 0 = no effect, 100 = complete control, read-out: Plant response rating, Ryegrass, Italian) it was 70%; in experiment [14] (preemergence, 0 to 100 scale, 0 = no effect, 100 = complete control, read-out: Plant response rating, Pigweed), 20%; in experiment [15] (preemergence, 0 to 100 scale, 0 = no effect, 100 = complete control, read-out: Plant response rating, Ragweed), 0%; in experiment [16] (preemergence, 0 to 100 scale, 0 = no effect, 100 = complete control, read-out: Plant response rating, Foxtail, Giant) it was 100%.

`CN1C[C@H](c2cc(F)c(C(F)(F)F)c(F)c2)[C@@H](C(=O)Nc2ccccc2F)C1=O` [Compound 899]: the pest or weed control at 125 g/ha is 80% in experiment [1] (visual injury rating after approximately 10 d, read-out: Barnyardgrass plant response rating (0 to 100 scale, 0 no effect, 100 complete control)); 0% in experiment [3] (visual injury rating after approximately 10 d, read-out: Kochia plant response rating (0 to 100 scale, 0 no effect, 100 complete control)); 30% in experiment [4] (visual injury rating after approximately 10 d, read-out: Ryegrass, Italian plant response rating (0 to 100 scale, 0 no effect, 100 complete control)); 0% in [6] (visual injury rating after approximately 10 d, read-out: Galium plant response rating (0 to 100 scale, 0 no effect, 100 complete control)); 0% in [7] (visual injury rating after approximately 10 d, read-out: Pigweed plant response rating (0 to 100 scale, 0 no effect, 100 complete control)); 40% in [8] (visual injury rating after approximately 10 d, read-out: Blackgrass plant response rating (0 to 100 scale, 0 no effect, 100 complete control)). The pest or weed control at 125 g/ha was determined as 20% in experiment [9] (visual injury rating after approximately 10 d, read-out: Ragweed plant response rating (0 to 100 scale, 0 no effect, 100 complete control)); 90% in experiment [10] (visual injury rating after approximately 10 d, read-out: Foxtail, Giant plant response rating (0 to 100 scale, 0 no effect, 100 complete control)); 90% in experiment [11] (preemergence, read-out: Barnyardgrass plant response rating); 30% in [13] (preemergence, read-out: Ryegrass, Italian plant response rating); 20% in [14] (preemergence, read-out: Pigweed plant response rating); 20% in [15] (preemergence, read-out: Ragweed plant response rating). Also, the pest or weed control at 125 g/ha in [16] (preemergence, read-out: Foxtail, Giant plant response rating) came to 90%. The plant injury at 125 g/ha was found to be 40% in experiment [2] (visual injury rating after approximately 10 d, read-out: Corn plant response rating (0 to 100 scale, 0 no effect, 100 complete control)) and 30% in experiment [5] (visual injury rating after approximately 10 d, read-out: Wheat plant response rating (0 to 100 scale, 0 no effect, 100 complete control)). Further, the pest or weed control at 500 g/ha came to 90% in experiment [11] (Preemergence, visual injury vs untreated controls after approximately 10 d, read-out: Barnyardgrass plant response rating (0 to 100 scale where 0 is no effect and 100 is complete control)); 70% in experiment [12] (Preemergence, visual injury vs untreated controls after approximately 10 d, read-out: Kochia plant response rating (0 to 100 scale where 0 is no effect and 100 is complete control)); 20% in experiment [13] (Preemergence, visual injury vs untreated controls after approximately 10 d, read-out: Ryegrass, Italian plant response rating (0 to 100 scale where 0 is no effect and 100 is complete control)); 40% in experiment [14] (Preemergence, visual injury vs untreated controls after approximately 10 d, read-out: Pigweed plant response rating (0 to 100 scale where 0 is no effect and 100 is complete control)); 60% in [15] (Preemergence, visual injury vs untreated controls after approximately 10 d, read-out: Ragweed plant response rating (0 to 100 scale where 0 is no effect and 100 is complete control)); 90% in experiment [16] (Preemergence, visual injury vs untreated controls after approximately 10 d, read-out: Foxtail, Giant plant response rating (0 to 100 scale where 0 is no effect and 100 is complete control)).
